Counter-ions that a name gives are not always drawn. Like-named read-outs stand apart in the source and are kept apart here.
Assays:
Cbl-b (residues 36-427) = Cbl-b (residues 36-427) (Homo sapiens, UniProt Q13191); test: Cbl-b binding assay (SPR, Biacore T200); details: 20° C., 1:1 binding model
In short: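 NeutrAvidin capture chip, 20° C; 50 s injections at 50 μl/min, 90-180 s dissociation; 0.3 M NaCl regeneration. Asterisked column: 50 mM NaCl buffer and 30 nM Src kinase in place of 100 mM NaCl and 60 nM Src kinase. 1:1 fit.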

T-cell = test: IL-2 secretion from T-cells stimulated with anti-CD3 antibody alone (Biological Example 2); assay type: cell-based, human; details: T-cell, read-out: IL-2 secretion Anti-CD3 stimulation; for fold induction at 1 µM: 1 μM Cbl-b inhibitor; for fold induction at 8 µM: 8 μM Cbl-b inhibitor
[1] = fold change over baseline, primary human total T-cells
[2] = Homo sapiens, fold change over baseline (anti-CD3/anti-CD28 stimulated T-cells without inhibitor)

Chain of Cbl-b (residues 36-427) (Q13191 36-427): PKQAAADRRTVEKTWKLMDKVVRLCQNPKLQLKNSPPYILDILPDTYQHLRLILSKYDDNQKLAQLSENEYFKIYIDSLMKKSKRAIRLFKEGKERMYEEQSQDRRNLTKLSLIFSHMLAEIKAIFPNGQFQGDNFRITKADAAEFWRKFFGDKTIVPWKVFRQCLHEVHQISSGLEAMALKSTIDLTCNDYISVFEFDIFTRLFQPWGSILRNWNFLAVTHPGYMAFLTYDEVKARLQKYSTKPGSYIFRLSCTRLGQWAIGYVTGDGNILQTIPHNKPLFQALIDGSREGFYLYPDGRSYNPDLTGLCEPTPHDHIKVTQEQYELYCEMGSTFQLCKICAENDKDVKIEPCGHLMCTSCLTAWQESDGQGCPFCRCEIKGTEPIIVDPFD

SMILES	Kd (Cbl-b (residues 36-427)) [nM]	fold induction at 1 µM (T-cell; [1])	fold induction at 8 µM (T-cell; [1])	fold induction at 1 µM (T-cell; [2])
CC(=O)N1CCN(c2ccc3cnc(C(=O)Nc4cccc([C@H](C)Cc5nncn5C)c4)cc3c2)CC1 [Compound 211, (R)-6-(4-acetylpiperazin-1-yl)-N-(3-(1-(4-methyl-4H-1,2,4-triazol-3-yl)propan-2-yl)phenyl)isoquinoline-3-carboxamide 2,2,2-trifluoroacetate]	100 to 300	> 0.201	> 0.201	–
C[C@H](Cc1nncn1C)c1cccc(N2Cc3c(cc(C(=O)N4CC[C@H](O)C4)cc3C(F)(F)F)C2=O)c1 [Compound 274, 6-((S)-3-hydroxypyrrolidine-1-carbonyl)-2-(3-((R)-1-(4-methyl-4H-1,2,4-triazol-3-yl)propan-2-yl)phenyl)-4-(trifluoromethyl)isoindolin-1-one]	< 100	0.151 to 0.2	> 0.201	–
C[C@H](Cc1nncn1C)c1cccc(N2Cc3c(cc(C(=O)N4C[C@@H](O)C[C@H]4C)cc3C(F)(F)F)C2=O)c1 [Compound 275, 6-((2R,4S)-4-hydroxy-2-methylpyrrolidine-1-carbonyl)-2-(3-((R)-1-(4-methyl-4H-1,2,4-triazol-3-yl)propan-2-yl)phenyl)-4-(trifluoromethyl)isoindolin-1-one]	< 100	> 0.201	> 0.201	–
C[C@H](Cc1nncn1C)c1cccc(N2Cc3c(cc(C(=O)N4CC(O)C4)cc3C(F)(F)F)C2=O)c1 [Compound 276, (R)-6-(3-hydroxyazetidine-1-carbonyl)-2-(3-(1-(4-methyl-4H-1,2,4-triazol-3-yl)propan-2-yl)phenyl)-4-(trifluoromethyl)isoindolin-1-one]	301 to 1000	0.051 to 0.1	0.151 to 0.2	–
C[C@H](Cc1nncn1C)c1cccc(N2Cc3c(cc(C(=O)N4CC[C@H](O)C4)cc3C3CC3)C2=O)c1 [Compound 277, 4-cyclopropyl-6-((S)-3-hydroxypyrrolidine-1-carbonyl)-2-(3-((R)-1-(4-methyl-4H-1,2,4-triazol-3-yl)propan-2-yl)phenyl)isoindolin-1-one]	100 to 300	0.051 to 0.1	0.101 to 0.15	–
Cn1cnnc1CC1(c2cccc(N3Cc4c(cccc4C(F)(F)F)C3=O)c2)CC1 [Compound 299, 2-(3-(1-((4-methyl-4H-1,2,4-triazol-3-yl)methyl)cyclopropyl)phenyl)-4-(trifluoromethyl)isoindolin-1-one]	1000 to 3000	0.051 to 0.1	> 0.201	–
Cn1cnnc1CC(C)(C)c1cccc(N2Cc3c(cccc3C(F)(F)F)C2=O)c1 [Compound 300, 2-(3-(2-methyl-1-(4-methyl-4H-1,2,4-triazol-3-yl)propan-2-yl)phenyl)-4-(trifluoromethyl)isoindolin-1-one]	100 to 300	> 0.201	> 0.201	–
Cn1cnnc1CC1(c2cccc(N3Cc4c(cccc4C(F)(F)F)C3=O)c2)COC1 [Compound 301, 2-[3-[3-[(4-methyl-1,2,4-triazol-3-yl)methyl]oxetan-3-yl]phenyl]-4-(trifluoromethyl)isoindolin-1-one]	301 to 1000	0.051 to 0.1	0.101 to 0.15	–
C[C@H](Sc1nncn1C)c1cccc(NC(=O)c2cc3cc(OCC(=O)NCCN)ccc3cn2)c1 [Compound 311, 6-[2-(2-aminoethylamino)-2-oxo-ethoxy]-N-[3-[(1S)-1-[(4-methyl-1,2,4-triazol-3-yl)sulfanyl]ethyl]phenyl]isoquinoline-3-carboxamide hydrochloride]	100 to 300	< 0.05	< 0.05	–
Cc1cnnn1C[C@@H](C)c1cccc(NC(=O)c2cccc(C(F)(F)F)n2)c1 [Compound 312a, (S)-N-(3-(1-(5-methyl-1H-1,2,3-triazol-1-yl)propan-2-yl)phenyl)-6-(trifluoromethyl)picolinamide]	301 to 1000	0.051 to 0.1	0.151 to 0.2	–
C[C@H](Cc1nncn1C)c1cccc(NC(=O)c2nc3c(C4CC4)cccc3[nH]2)c1 [Compound 319, 4-cyclopropyl-N-[3-[(1R)-1-methyl-2-(4-methyl-1,2,4-triazol-3-yl)ethyl]phenyl]-1H-benzimidazole-2-carboxamide]	100 to 300	0.051 to 0.1	> 0.201	–
C[C@H](Cc1nncn1C)c1cccc(NC(=O)c2cc(C(C)(C)O)cc(C(F)(F)F)n2)c1 [Compound 320, 4-(2-hydroxypropan-2-yl)-N-[3-[(2R)-1-(4-methyl-4H-1,2,4-triazol-3-yl)propan-2-yl]phenyl]-6-(trifluoromethyl)pyridine-2-carboxamide]	100 to 300	0.101 to 0.15	> 0.201	–
C[C@H](Cc1nncn1C)c1cccc(NC(=O)c2cccc(C(C)(C)C)n2)c1 [Compound 321, (R)-6-(Tert-butyl)-N-(3-(1-(4-methyl-4H-1,2,4-triazol-3-yl)propan-2-yl)phenyl)picolinamide]	100 to 300	0.051 to 0.1	> 0.201	–
CC1CCc2c1n[nH]c2C(=O)Nc1cccc([C@H](C)Cc2nncn2C)c1 (stereo partly drawn) [Compound 323, 6-Methyl-N-(3-((R)-1-(4-methyl-4H-1,2,4-triazol-3-yl)propan-2-yl)phenyl)-2,4,5,6-tetrahydrocyclopenta[c]pyrazole-3-carboxamide]	100 to 300	0.101 to 0.15	> 0.201	–
Cc1cc(C(=O)Nc2cccc([C@H](C)Cc3nocc3C)c2)nc(C2CC2)n1 [Compound 330, (R)-2-cyclopropyl-6-methyl-N-(3-(1-(4-methylisoxazol-3-yl)propan-2-yl)phenyl)pyrimidine-4-carboxamide]	301 to 1000	0.051 to 0.1	> 0.201	–
C[C@H](Cc1nncn1C)c1cc(NC2COC2)nc(N2Cc3c(cccc3C(F)(F)F)C2=O)c1 [Compound 352, 2-{4-[(2R)-1-(4-methyl-4H-1,2,4-triazol-3-yl)propan-2-yl]-6-[(oxetan-3-yl)amino]pyridin-2-yl}-4-(trifluoromethyl)-2,3-dihydro-1H-isoindol-1-one]	100 to 300	0.051 to 0.1	> 0.201	–
CC(C)Nc1cc([C@H](C)Cc2nncn2C)cc(N2Cc3c(cccc3C(F)(F)F)C2=O)n1 [Compound 353, 2-{4-[(2R)-1-(4-methyl-4H-1,2,4-triazol-3-yl)propan-2-yl]-6-[(propan-2-yl)amino]pyridin-2-yl}-4-(trifluoromethyl)-2,3-dihydro-1H-isoindol-1-one]	< 100	0.101 to 0.15	> 0.201	–
CCOc1cc([C@H](C)Cc2nncn2C)cc(N2Cc3c(cccc3C(F)(F)F)C2=O)n1 [Compound 358, (R)-2-(6-ethoxy-4-(1-(4-methyl-4H-1,2,4-triazol-3-yl)propan-2-yl)pyridin-2-yl)-4-(trifluoromethyl)isoindolin-1-one]	< 100	0.151 to 0.2	> 0.201	–
CCNc1cc([C@H](C)Cc2nncn2C)cc(N2Cc3c(cccc3C(F)(F)F)C2=O)n1 [Compound 360, (R)-2-(6-(ethylamino)-4-(1-(4-methyl-4H-1,2,4-triazol-3-yl)propan-2-yl)pyridin-2-yl)-4-(trifluoromethyl)isoindolin-1-one]	< 100	> 0.201	> 0.201	–
CNc1cc([C@H](C)Cc2nncn2C)cc(N2Cc3c(cccc3C(F)(F)F)C2=O)n1 [Compound 363, (R)-2-(4-(1-(4-methyl-4H-1,2,4-triazol-3-yl)propan-2-yl)-6-(methylamino)pyridin-2-yl)-4-(trifluoromethyl)isoindolin-1-one]	< 100	0.051 to 0.1	0.151 to 0.2	–
C[C@H](c1cc2c(c(C(F)(F)F)c1)CN(c1cccc(C3(C(F)(F)c4nncn4C)COC3)c1)C2=O)N1CC[C@H](F)C1 [Example 571, 2-(3-(3-(difluoro(4-methyl-4H-1,2,4-triazol-3-yl)methyl)oxetan-3-yl)phenyl)-6-((R)-1-((S)-3-fluoropyrrolidin-1-yl)ethyl)-4-(trifluoromethyl)isoindolin-1-one]	< 100	–	–	> 0.201
C[C@H](c1cc2c(c(C(F)(F)F)c1)CN(c1cccc(C3([C@@H](F)c4nncn4C)COC3)c1)C2=O)N1CCC2(CC2)C1 [Example 576, 6-((R)-1-(5-azaspiro[2.4]heptan-5-yl)ethyl)-2-(3-(3-((R)-fluoro(4-methyl-4H-1,2,4-triazol-3-yl)methyl)oxetan-3-yl)phenyl)-4-(trifluoromethyl)isoindolin-1-one]	< 100	–	–	> 0.201
Cn1cnnc1CC1(c2cccc(N3Cc4c(cc(CN5CCC(C)(F)CC5)cc4C(F)(F)F)C3=O)c2)COC1 [Example 620, 6-((4-fluoro-4-methylpiperidin-1-yl)methyl)-2-(3-(3-((4-methyl-4H-1,2,4-triazol-3-yl)methyl)oxetan-3-yl)phenyl)-4-(trifluoromethyl)isoindolin-1-one]	< 100	–	–	> 0.201
Cn1cnnc1[C@@H](F)C1(c2cccc(N3Cc4c(cc(CN5CCC(F)CC5)cc4C(F)(F)F)C3=O)c2)COC1 [Example 670a, (S)-2-(3-(3-(fluoro(4-methyl-4H-1,2,4-triazol-3-yl)methyl)oxetan-3-yl)phenyl)-6-((4-fluoropiperidin-1-yl)methyl)-4-(trifluoromethyl)isoindolin-1-one]	< 100	–	–	> 0.201

Reference: patent US20220324835A1 (Nurix Therapeutics, Inc., priority 2018, published 2022)
